“And” between values parts separate entries of the source, which are not always exact repeats. Equal entries are not always repeated.
Key:
Format in all cases: in vivo
[1] = system: Sida cordifolia L. (heartleaf sida, SIDCO); experiment: Postemergence herbicidal weed control, fluroxypyr-meptyl and diclosulam, greenhouse trials (Table 1); settings: 14DAA1, 200 g ae/ha
Experimental: (§1) Seeds of the desired test plant species were planted in a peat-based potting soil, Metro-Mix 360® in plastic pots with a surface area of 128 square centimeters (cm^2). Metro-Mix 360® consists of formulated Canadian sphagnum peat moss, coarse perlite, bark ash, a starter nutrient charge (with gypsum), a slow-release nitrogen and dolomitic limestone. The plants were grown for 7-19 days in a greenhouse with an approximate 14-hour (h) photoperiod which was maintained at about 29° C. during the day and 26° C. during the night. Nutrients and water were added on a regular basis and supplemental lighting was provided with overhead metal halide 1000-Watt lamps as necessary. The plants were treated with postemergence foliar applications when they reached the third to fourth true leaf stage. All treatments were applied using a randomized complete block trial design, with 4 replications per treatment.
Treatments consisted of the compounds as listed in Tables 1 to 4, each compound applied alone and in combination. […]
Treatments were rated at 7 to 21 days after application (DAA) as compared to the untreated control plants. Visual weed control was scored on a scale of 0 to 100 percent where 0 corresponds to no injury and 100 corresponds to complete kill. […]

[2] = system: Amaranthus rudis Sauer (common waterhemp, AMATA); experiment: Postemergence herbicidal weed control, fluroxypyr-meptyl and cloransulam-methyl, field trials (Table 2)
Experimental: as §1
(§2) Treatments consisted of the compounds as listed in Tables 1 to 4, each compound applied alone and in combination. Commercially formulated products of fluroxypyr-meptyl (STARANE™, 333 grams acid equivalent per liter (g ae/L) EC), diclosulam (SPIDER® 84WG), cloransulam-methyl (FIRSTRATE™ 84WG), chlorimuron-ethyl (CLASSIC® 25WG) and thifensulfuron-methyl (HARMONY® 50SG). Formulated amounts of fluroxypyr-meptyl, diclosulam, cloransulam-methyl, chlorimuron-ethyl and thifensulfuron-methyl were placed in 60 milliliter (mL) glass vials and dissolved in a volume of 30 or 60 mL of a water solution containing Agri-dex crop oil concentrate in a 1% volume per volume (v/v) ratio. Compound requirements are based upon either a 30- or a 60-mL application volume at a rate of 200 liters per hectare (L/ha). Spray solutions of the mixtures were prepared by adding the stock solutions to the appropriate amount of dilution solution to form either a 30- or a 60-mL spray solution with active ingredients in single and two-way combinations. Formulated compounds were applied to the plant material with an overhead Generation III Research Sprayer manufactured by DeVries Manufacturing in Hollandale, Minn., USA. The track sprayer was equipped with an 8003E nozzle calibrated to deliver 200 L/ha at a spray height of 18 inches (43 centimeters (cm)) above average plant canopy.
(§3) The treated plants and untreated control plants were placed in a greenhouse as described above and watered by sub-irrigation to prevent wash-off of the test compounds.
(§4) Treatments were rated at 7 to 21 days after application (DAA) as compared to the untreated control plants. Visual weed control was scored on a scale of 0 to 100 percent where 0 corresponds to no injury and 100 corresponds to complete kill.
(§5) Field trials were conducted using standard herbicide small plot research methodology. Plots varied from 3×3.3 meter (m) to 4.5×10 m (width×length) with 4 replicates per treatment. The crops used in the field trials were grown using normal cultural practices for land preparation, fertilization, seeding and maintenance to ensure good growth of the crop and the weeds.
(§6) All treatments in the field trials were applied using either pressurized air or carbon dioxide (CO2) backpack or bicycle sprayers calibrated to apply 100-187 L/ha spray volume. Flat Fan spray nozzles were used in all trials, with water as the diluent applied at 275-300 kilopascals (kPa). Weed sizes at application ranged from 10 to 40 cm tall. Commercially available products of fluroxypyr-meptyl (STARANE™, 180 and 333 g ae/L EC), diclosulam (SPIDER® 84WG), and thifensulfuron-methyl (HARMONY® 75WG) were mixed in water at appropriately formulated product rates to achieve the desired rates based on a unit area of application (hectare) to achieve the desired rates as shown. No adjuvants were tank-mixed with any treatments applied in the field trials. Treatments were rated at 14-26 days after application as compared to the untreated control plants. […]

[3] = system: Abutilon theophrasti (velvetleaf, ABUTH); experiment: as above
Experimental: as §1, §2, §3, §4, §5, §6

[4] = system: Amaranthus rudis Sauer (common waterhemp, AMATA); experiment: Postemergence herbicidal weed control, fluroxypyr-meptyl and diclosulam, greenhouse trials (Table 1)
Experimental: as §1, §2, §3, §4
(§7) Colby's equation was used to determine the herbicidal effects expected from the mixtures (Colby, S. R. Calculation of the synergistic and antagonistic response of herbicide combinations. Weeds 196715, 20-22). A t-test (alpha=0.05) between Colby predictions and observed combinations was used to test for significant differences indicating synergy or antagonism. The results presented in the Tables were significant according to the described criteria.
(§8) The following equation was used to calculate the expected activity of mixtures containing two active ingredients, A and B: Expected=A+B−(A×B/100) • A=observed efficacy of active ingredient A at the same concentration as used in the mixture; • B=observed efficacy of active ingredient B at the same concentration as used in the mixture.

[5] = system: Abutilon theophrasti (velvetleaf, ABUTH); experiment: as above
Experimental: as §1, §2, §3, §4, §7, §8

[6] = system: Chenopodium album (common lambsquarters, CHEAL); experiment: as above
Experimental: as §1, §2, §3, §4, §7, §8

[7] = system: Amaranthus palmeri S. Wats. (Palmer amaranth, AMAPA); experiment: Postemergence herbicidal weed control, fluroxypyr-meptyl and thifensulfuron-methyl, field trials (Table 4); settings: 7DAA1, 50 g ae/ha
Experimental: as §1, §2, §3, §4, §5
(§9) All treatments in the field trials were applied using either pressurized air or carbon dioxide (CO2) backpack or bicycle sprayers calibrated to apply 100-187 L/ha spray volume. Flat Fan spray nozzles were used in all trials, with water as the diluent applied at 275-300 kilopascals (kPa). Weed sizes at application ranged from 10 to 40 cm tall. […]

[8] = system: Abutilon theophrasti (velvetleaf, ABUTH); experiment: as above; settings: 14DAA1, 100 g ae/ha
Experimental: as §1, §2, §3, §4, §5, §9

[9] = system: Commelina benghalensis (tropical spiderwort, COMBE); experiment: Postemergence herbicidal weed control, fluroxypyr-meptyl and diclosulam, greenhouse trials (Table 1)
Experimental: as §5
All treatments in the field trials were applied using either pressurized air or carbon dioxide (CO2) backpack or bicycle sprayers calibrated to apply 100-187 L/ha spray volume. Flat Fan spray nozzles were used in all trials, with water as the diluent applied at 275-300 kilopascals (kPa). Weed sizes at application ranged from 10 to 40 cm tall. Commercially available products of fluroxypyr-meptyl (STARANE™, 180 and 333 g ae/L EC), diclosulam (SPIDER® 84WG), and thifensulfuron-methyl (HARMONY® 75WG) were mixed in water at appropriately formulated product rates to achieve the desired rates based on a unit area of application (hectare) to achieve the desired rates as shown. No adjuvants were tank-mixed with any treatments applied in the field trials. Treatments were rated at 14-26 days after application as compared to the untreated control plants. Visual weed control was scored on a scale of 0 to 100 percent where 0 corresponds to no injury and 100 corresponds to complete kill.
The treated plots and control plots were rated blind at various intervals after application. Ratings were reported on a Percent (%) Visual Control basis, where 0 corresponds to no visual effect/weed control and 100 corresponds to complete kill of the target weeds.
as §7, §8

With CCCCCCC(C)OC(=O)COc1nc(F)c(Cl)c(N)c1Cl (stereo not drawn) [Fluroxypyr-meptyl, fluroxypyr-methylheptyl ester] the “Fluroxypyr-meptyl Mean % weed control” value [1] was 30.0%, the “Fluroxypyr-meptyl Mean % weed control” value ([2]; 8DAA1, 25 g ae/ha) was 42.5% and the “Fluroxypyr-meptyl Mean % weed control” value ([2]; 14DAA1, 25 g ae/ha) was 21.3%. For the same compound, the “Fluroxypyr-meptyl Mean % weed control” value ([2]; 21DAA1, 25 g ae/ha) was 22.5%, the “Fluroxypyr-meptyl Mean % weed control” value ([3]; 14DAA1, 25 g ae/ha) was 68.3% and 70.0% and the “Fluroxypyr-meptyl Mean % weed control” value ([3]; 21DAA1, 25 g ae/ha) was 71.7% and 72.5%. For the same compound, the “Fluroxypyr-meptyl Mean % weed control” value ([4]; 8DAA1, 50 g ae/ha) was 60.0%, the “Fluroxypyr-meptyl Mean % weed control” value ([4]; 14DAA1, 50 g ae/ha) was 43.8% and the “Fluroxypyr-meptyl Mean % weed control” value ([4]; 14DAA1, 100 g ae/ha) was 37.5%. The “Fluroxypyr-meptyl Mean % weed control” value ([4]; 21DAA1, 50 g ae/ha) was 37.5%, the “Fluroxypyr-meptyl Mean % weed control” value ([4]; 21DAA1, 100 g ae/ha) was 38.8% and the “Fluroxypyr-meptyl Mean % weed control” value ([5]; 14DAA1, 25 g ae/ha) was 70.0%. The “Fluroxypyr-meptyl Mean % weed control” value ([5]; 21DAA1, 25 g ae/ha) was 72.5%, the “Fluroxypyr-meptyl Mean % weed control” value ([6]; 8DAA1, 50 g ae/ha) was 43.3% and the “Fluroxypyr-meptyl Mean % weed control” value ([6]; 14DAA1, 50 g ae/ha) was 20.0%. The “Fluroxypyr-meptyl Mean % weed control” value ([6]; 21DAA1, 50 g ae/ha) was 18.3%, the “Fluroxypyr-meptyl Mean % weed control” value ([6]; 21DAA1, 100 g ae/ha) was 21.0% and the “Fluroxypyr-meptyl Mean % weed control” value [7] was 48.8%. The “Fluroxypyr-meptyl Mean % weed control” value [8] was 80.8%, the “Fluroxypyr-meptyl Mean % weed control” value ([9]; 14DAA1, 200 g ae/ha) was 27.5% and the “Fluroxypyr-meptyl Mean % weed control” value ([9]; 26DAA1, 200 g ae/ha) was 25.0%.

Reference: patent US9737073B2, “Herbicidal weed control from combinations of fluroxypyr and ALS inhibitors” (Dow AgroSciences LLC, priority 2014, dated 2017)
